Test results: patent publication US10766885B1, “Silibinin 3,3′-thiodipropionic acid ester with hepatoprotective activity and a method of preparing the same” (SHAANXI UNIVERSITY OF SCIENCE AND TECHNOLOGY, priority 2020, dated 2020)

Key:
[1] = DPPH radical scavenging activity assay; format: biochemical; details: for DPPH Clearance rate: n = 3
Text: 2,2-Diphenyl-1-picryl hydrazyl (DPPH) is an organic compound composed of a stable organic radical. In the DPPH molecule, due to the presence of multiple electron-withdrawing —NO2 and large π bonds of the benzene ring, nitrogen free radical is stabilized. Its methanol solution is purple and has a maximum absorption peak at 517 nm. After the addition of an antioxidant, DPPH captures an electron to be paired with the free electron, and the purple fades and turns into a yellow substance. The absorption at 517 nm disappears, and the degree of fading is quantitatively related to the number of electrons it captures. Based on this principle, a spectrophotometer is used to detect the change of the absorbance of the DPPH radical and the sample solution, and the ability of the sample to provide hydrogen atoms and scavenge free radicals can be measured.
Preparation of DPPH solution: measuring exact amount of 2,2-diphenyl-1-picryl hydrazyl (DPPH) and dissolving in toluene to prepare a 0.2 mmol/L DPPH solution, stored at 0° C. in dark.
Preparation of test solution: Vc (vitamin C, positive control), compound of formula (I) (sample), silibinin (control) and 3,3′-thiodipropionic acid (control). The sample solution was subjected to gradient dilution with toluene, and three sets of controls were separately dissolved in a test tube with a certain amount of toluene to prepare the same concentration gradient as the sample.
Sample liquid absorbance measurement: Take 2 mL of sample solution (Table 2 Vc, B, C), add 2 mL of DPPH solution with concentration of 2×10^−4 mol/L, mix and react in the dark at room temperature for 30 min, adjust to zero with toluene, and measure at 517 nm. The absorbance Ai was simultaneously measured for the absorbance Aj of 2 mL of toluene mixed with 2 mL of the sample solution and the absorbance Ao of 2 mL of DPPH solution mixed with 2 mL of toluene (the experimental results are shown in Table 3).
Clearance calculation: clearance rate (%)=[1−(Ai−Aj)/Ao]*100%

[2] = tested on: Mice with Alcoholic Liver Injury; assay: Protective effect on alcoholic liver injury in mice (serum ALT, AST, TG); format: in vivo; details: ethanol 3 g/kg/day, after 25 days
Experimental: The compound of formula (I) was prepared by the method of Example 7. In order to study its protective effect on alcoholic liver injury in mice, the following animal model was designed.
Three-week-old 30-35 g SPF male mice were randomly divided into normal control group, model group, low-dose group, high-dose group and tiopronin positive control group after adaptive feeding for 3 days. The normal control group and model group were fed with basic feed every day; low dose group and high dose group were fed with basic diet every day and were given the compound of formula (I) of 10 mg/kg/day and 50 mg/kg/day, respectively; tiopronin positive control group was fed with basic feed and 50 mg/kg/day tiopronin. Ethanol 3 g/kg/day (0.01 mL/g) was given to the model group, low dose group, high dose group and tiopronin positive control group. The normal control group was given distilled water of the same volume. After 25 days, fasting for 2 hours after the last administration, glutamic pyruvic transaminase (ALT), glutamic oxaloacetic transaminase (AST) and triglyceride (TG) were measured in serum by decapitation.

SMILES | DPPH Clearance rate ([1]; 1.76 ppm) | DPPH Clearance rate ([1]; 8.80 ppm) | DPPH Clearance rate ([1]; 21.12 ppm) | DPPH Clearance rate ([1]; 42.24 ppm) | DPPH Clearance rate ([1]; 79.20 ppm) | DPPH Clearance rate ([1]; 112.64 ppm) | DPPH Clearance rate ([1]; 281.60 ppm) | DPPH Clearance rate ([1]; 492.80 ppm) | DPPH Clearance rate ([1]; 792.00 ppm) | DPPH Clearance rate ([1]; 915.20 ppm) | scavenging ability compared with the positive control Vc group [1] | scavenging ability to scavenge DPPH free radicals compared with silibinin (B) and 3,3′-thiodipropionic acid (C) alone ([1]; at the same concentration) | highest scavenging rate of DPPH radical ([1]; in the determined concentration range) | ALT ([2]; 10 mg/kg/day) | AST ([2]; 10 mg/kg/day) | TG ([2]; 10 mg/kg/day) | ALT ([2]; 50 mg/kg/day) | AST ([2]; 50 mg/kg/day) | TG ([2]; 50 mg/kg/day)
COc1cc(C2Oc3cc([C@H]4Oc5cc(O)cc(O)c5C(=O)[C@@H]4O)ccc3OC2CO)ccc1O (stereo partly shown) [B, Silibinin] | 8.42% | 9.16% | 22.43% | 27.10% | 39.53% | 45.87% | 60.25% | 65.88% | 69.85% | 72.76% |  |  |  |  |  |  |  |  | 
O=C(O)CCSCCC(=O)O [C, 3,3′-Thiodipropionic acid] | 6.85% | 8.38% | 17.13% | 22.38% | 39.55% | 43.58% | 52.23% | 59.36% | 64.55% | 68.22% |  |  |  |  |  |  |  |  | 
COc1cc(C2Oc3cc([C@H]4Oc5cc(O)cc(O)c5C(=O)[C@@H]4O)ccc3OC2COC(=O)CCSCCC(=O)OCC2Oc3ccc([C@H]4Oc5cc(O)cc(O)c5C(=O)[C@@H]4O)cc3OC2c2ccc(O)c(OC)c2)ccc1O (stereo partly drawn) [Compound of Formula (I), bis((3-(4-hydroxy-3-methoxyphenyl)-6-((2R,3R)-3,5,7-trihydroxy-4-oxochroman-2-yl)-2,3-dihydrobenzo[b][1,4]dioxin-2-yl)methyl) 3,3′-thiodipropionate] | 13.11% | 20.80% | 34.16% | 44.12% | 68.42% | 75.23% | 81.21% | 84.70% | 87.06% | 89.96% | slightly weaker | better | 89.96% | 60.88 ± 9.75 U/L | 138.53 ± 17.85 U/L | 0.973 ± 0.25 mmol/L | 56.17 ± 3.45 U/L | 132.56 ± 7.21 U/L | 0.877 ± 0.36 mmol/L
CC(S)C(=O)NCC(=O)O (stereo not shown) [Tiopronin, tiopronin] |  |  |  |  |  |  |  |  |  |  |  |  |  |  |  |  | 63.45 ± 9.53 U/L | 143.32 ± 15.46 U/L | 1.336 ± 0.62 mmol/L
O=C1O[C@H]([C@@H](O)CO)C(O)=C1O [Vc, vitamin C] | 23.16% | 33.47% | 79.63% | 89.55% | 97.42% | 97.53% | 98.29% | 99.06% | 99.10% | 99.28% |  |  |  |  |  |  |  |  | 
